From patent US20100130737A1, “Regulating Agent of GPR34 Receptor Function” (TAKEDA PHARMACEUTICAL COMPANY LIMITED, priority 2005, published 2010) come the findings set out here.

The target of one data set is human GPR34 (Homo sapiens, UniProt Q9UPC5). Kind of data set: Human GPR34 antagonist activity indicated by changes in intracellular calcium concentration (FLIPR). The class given is cell-based. Details: expressed in transfected cells; host or cells: CHO cells (human GPR34CHO line) stably transfected with pCR3.1 human lung Gα16. Particulars: CHO cells expressing human GPR34/Gα16, against 2 μM lysoPS final concentration, Fluo-3AM. On the procedure: CHO cells expressing human GPR34/Gα were diluted to 3×10^4/100 μl in cell culture medium [nucleic acid-free Minimum Essential Alpha Medium (Invitrogen) containing 10% dialyzed fetal bovine serum (Invitrogen) 0.5 mg/ml Geneticin (Invitrogen), penicillin and streptomycin (Invitrogen)], dispensed 100 μl per well into a Black walled 96-well plate (Costar), and cultured overnight in a CO2 incubator. Changes in intracellular calcium concentration were measured with a FLIPR (Molecular Device) by the methods described below.
50 μg of Fluo-3AM (Dojindo) was dissolved in 21 μl of DMSO (Dojindo), an equal amount of 20% pluronic acid (Molecular Probes) was added and mixed, and this was added to 10.6 ml of assay buffer [prepared by adding 20 ml of 1 M HEPES (pH 7.4, Dojindo) to HBSS (Invitrogen), and then adding 10 ml of a solution obtained by dissolving 710 mg of Probenecid (Sigma) in 5 ml of 1 N NaOH and then adding and mixing 5 ml of the HBSS/HEPES solution)] with 105 μl of fetal bovine serum added thereto to prepare a fluorescent dye solution. The medium was removed from the cell plate, 100 μl per well of the fluorescent dye solution was immediately poured in, and the cells were cultured for 1 hour in a CO2 incubator to incorporate the fluorescent dye into the cells. After culture, the cells were washed with the aforementioned assay buffer. The compound was dissolved in DMSO (Wako Pure Chemical), diluted with DMSO as necessary, added to the aforementioned assay buffer to the target concentration and poured into the plate. To measure antagonist activity, 8 μM lysophosphatidyl serine (lysoPS, Alexis) solution (2 μM final concentration during reaction) was poured into the plate, which was set in the FLIPR. Following these preliminaries, the agonist effect was measured in the FLIPR by measuring changes in intracellular calcium concentration up to 180 seconds after addition of the sample, and after 200 seconds lysoPS was added and the antagonist effect was measured. In the case of the agonist effect, the EC50 value of the added compound was calculated from the dose reaction curve using changes in fluorescent strength from 0 to 180 seconds after the start of the reaction. In the case of the antagonist effect, the IC50 was calculated from the dose reaction curve using changes in maximum fluorescent strength after 200 to 380 seconds of reaction time. The data was analyzed using “GraphPad PRISM4”.

Chain of human GPR34 (Q9UPC5 whole entry): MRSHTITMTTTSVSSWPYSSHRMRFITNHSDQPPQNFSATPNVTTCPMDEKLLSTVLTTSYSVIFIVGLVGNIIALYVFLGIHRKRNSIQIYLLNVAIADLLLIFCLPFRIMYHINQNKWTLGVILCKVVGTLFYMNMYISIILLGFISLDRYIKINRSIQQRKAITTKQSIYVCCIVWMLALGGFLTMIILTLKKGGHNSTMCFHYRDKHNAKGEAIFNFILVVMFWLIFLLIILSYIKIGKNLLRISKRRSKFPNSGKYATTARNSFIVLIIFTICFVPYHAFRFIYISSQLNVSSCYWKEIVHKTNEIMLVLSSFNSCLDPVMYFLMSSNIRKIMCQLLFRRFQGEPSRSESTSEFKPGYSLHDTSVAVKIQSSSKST

`O=C(N[C@@H](Cc1ccc(OCc2ccccc2)cc1)C(=O)O)c1cc2ccc(-c3ccc(Cl)cc3)cc2s1` [Example C122, O-Benzyl-N-{[6-(4-chlorophenyl)-1-benzothiophene-2-yl]carbonyl}tyrosine] showed a melting point of 237 to 239 °C. In addition, the concentration for half-maximal inhibition (IC50) on human GPR34 is no more than 1 µM.
Compound `O=C(N[C@@H](Cc1ccc(OCc2ccccc2)cc1)C(=O)O)c1ccc2nc(-c3ccc(Cl)cc3)cn2c1` [Example E25, O-Benzyl-N-{[2-(4-chlorophenyl)imidazo[1,2-a]pyridin-6-yl]carbonyl}tyrosine] came in with a melting point of 278 to 280 °C. Besides, on human GPR34, the IC50 was no more than 1 µM.
For `O=C(N[C@@H](Cc1ccc(OCc2ccccc2)cc1)C(=O)O)c1cc2ccc(-c3ccc(Cl)cc3)cc2o1` [Example C143, O-Benzyl-N-{[6-(4-chlorophenyl)-1-benzofuran-2-yl]carbonyl}tyrosine], the melting point fell in the range of 170 to 171 °C. Also, the IC50 on human GPR34 was no more than 1 µM.
The like results for `CC(C)Oc1ccc(-c2ccc3nc(C(=O)N[C@@H](Cc4ccc(OCc5ccccc5)cc4)C(=O)O)cn3c2)cc1` [Example E45, O-Benzyl-N-{[6-(4-isopropoxyphenyl)imidazo[1,2-a]pyridin-2-yl]carbonyl}tyrosine] were, in that order, 263 °C (dec.) and no more than 1 µM.
Take `Cc1c(-c2ccc(Cl)cc2)ccc2nc(C(=O)N[C@@H](Cc3ccc(OCc4ccccc4)cc3)C(=O)O)cn12` [Example E26, O-Benzyl-N-{[6-(4-chlorophenyl)-5-methylimidazo[1,2-a]pyridin-2-yl]carbonyl}tyrosine]: the melting point is 263 to 264 °C. For the same compound, the IC50 on human GPR34 was no more than 1 µM.
The like results for `O=C(N[C@@H](Cc1ccc(OCc2ccccc2)cc1)C(=O)O)c1cc2cc(C#Cc3ccccc3)ccc2s1` [Example C139, O-Benzyl-N-{[5-(phenylethynyl)-1-benzothiophene-2-yl]carbonyl}tyrosine] were, in that order, 198 to 199 °C and no more than 1 µM.
The matching figures for `O=C(N[C@@H](Cc1ccc(OCc2ccc(F)cc2)cc1)C(=O)O)c1cn2ccc(-c3ccc(Cl)cc3)cc2n1` [Example E49, N-{[7-(4-Chlorophenyl)imidazo[1,2-a]pyridin-2-yl]carbonyl}-O-(4-fluorobenzyl)tyrosine]: 255 to 257 °C and no more than 1 µM.
As for `O=C(N[C@@H](Cc1ccc(OCc2ccccc2)cc1)C(=O)O)c1cc2cc(-c3ccc(Cl)cc3)ccc2s1` [Example C123, O-Benzyl-N-{[5-(4-chlorophenyl)-1-benzothiophene-2-yl]carbonyl}tyrosine], the melting point lay within 206 to 207 °C. Besides, the IC50 at human GPR34 was no more than 1 µM.
The like results for `CS(=O)(=O)NC(=O)[C@H](Cc1ccc(OCc2ccccc2)cc1)NC(=O)c1cn2cc(-c3ccc(Cl)cc3)ccc2n1` [Example E23, O-Benzyl-Nα-{[6-(4-chlorophenyl)imidazo[1,2-a]pyridin-2-yl]carbonyl}-N-(methylsulfonyl)tyrosinamide] were, in that order, 232 °C and no more than 1 µM.
With `O=C(N[C@@H](Cc1ccc(OCc2ccccc2)cc1)C(=O)O)c1cn2c(-c3ccc(Cl)cc3)cccc2n1` [Example E9, O-Benzyl-N-{[5-(4-chlorophenyl)imidazo[1,2-a]pyridin-2-yl]carbonyl}tyrosine], the melting point came to 218 °C. Also, the IC50 on human GPR34 is no more than 1 µM.
`O=C(N[C@@H](Cc1ccc(OCc2ccccc2)cc1)C(=O)O)C1=Cc2ccc(-c3ccc(Cl)cc3)cc2SC1` [Example C145, O-Benzyl-N-{[7-(4-chlorophenyl)-2H-thiochromene-3-yl]carbonyl}tyrosine]: the melting point lay within 225 to 227 °C. Further, at human GPR34, the IC50 is no more than 1 µM.
The matching figures for `O=C(N[C@@H](Cc1ccc(OCc2cccc(F)c2)cc1)C(=O)O)c1cn2ccc(-c3ccc(Cl)cc3)cc2n1` [Example E48, N-{[7-(4-Chlorophenyl)imidazo[1,2-a]pyridin-2-yl]carbonyl}-O-(3-fluorobenzyl)tyrosine]: 248 to 250 °C and no more than 1 µM.
Turning to `O=C(/C=C/c1cccc(-c2ccc(Cl)cc2)c1)N[C@@H](Cc1ccc(OCc2ccccc2)cc1)C(=O)O` [Example D1, O-Benzyl-N-[(2E)-3-(4′-chlorobiphenyl-3-yl)propa-2-enoyl]tyrosine], the melting point was 194 to 195 °C. Also, at human GPR34, the IC50 was no more than 1 µM.
The compound `O=C(N[C@@H](Cc1ccc(OCc2ccccc2)cc1)C(=O)O)c1cn2nc(SCc3ccccc3)ccc2n1` [Example E54, O-Benzyl-N-{[6-(benzylthio)imidazo[1,2-b]pyridazine-2-yl]carbonyl}tyrosine] yielded a melting point of 178 to 179 °C. Moreover, on human GPR34, the IC50 is no more than 1 µM.
`Nc1c(C(=O)N[C@@H](Cc2ccc(OCc3ccccc3)cc2)C(=O)O)oc2cc(-c3ccc(Cl)cc3)ccc12` [Example C147, N-{[3-Amino-6-(4-chlorophenyl)-1-benzofuran-2-yl]carbonyl}-O-benzyltyrosine]: the melting point is 250 °C (dec.). The IC50 at human GPR34 was no more than 1 µM.
The like results for `Cc1cc(-c2ccc(Cl)cc2)cn2cc(C(=O)N[C@@H](Cc3ccc(OCc4ccccc4)cc3)C(=O)O)nc12` [Example E27, O-Benzyl-N-{[6-(4-chlorophenyl)-8-methylimidazo[1,2-a]pyridin-2-yl]carbonyl}tyrosine] were, in that order, 249 to 250 °C and no more than 1 µM.
Turning to `O=C(N[C@@H](Cc1ccc(OCc2ccccc2)cc1)C(=O)O)c1nc2ccc(/C=C/c3ccccc3)cc2[nH]1` [Example C144, O-Benzyl-N-({6-[(E)-2-phenylethenyl]-1H-benzimidazol-2-yl)carbonyl)tyrosine], the melting point was 247 °C (dec.). The IC50 at human GPR34 is no more than 1 µM.
On to `Cc1ccc(/C=C/c2ccc3nc(C(=O)N[C@@H](Cc4ccc(OCc5ccccc5)cc4)C(=O)O)cn3c2)cc1` [Example E42, O-Benzyl-N-({6-[(E)-2-(4-methylphenyl)ethenyl]imidazo[1,2-a]pyridin-2-yl}carbonyl) tyrosine], for which the melting point fell in the range of 266 to 267 °C. Besides, at human GPR34, the IC50 was no more than 1 µM.
Compound `O=C(N[C@@H](Cc1ccc(OCc2ccccc2)cc1)C(=O)O)c1cc2cc(-c3ccc(Cl)cc3)ccc2[nH]c1=O` [Example C146, O-Benzyl-N-{[6-(4-chlorophenyl)-2-oxo-1,2-dihydroquinolin-3-yl]carbonyl}tyrosine] had a melting point of 298 to 299 °C. Moreover, on human GPR34, the IC50 was no more than 1 µM.
`O=C(N[C@@H](Cc1ccc(OCc2ccccc2)cc1)C(=O)O)c1cn2cc(-c3ccccc3Cl)ccc2n1` [Example E24, O-Benzyl-N-{[6-(2-chlorophenyl)imidazo[1,2-a]pyridin-2-yl]carbonyl}tyrosine] returned a melting point of 228 °C. Moreover, on human GPR34, the IC50 is no more than 1 µM.
In turn, `O=C(N[C@@H](Cc1ccc(OCc2ccccc2)cc1)C(=O)O)c1cn2nc(C#Cc3ccccc3)ccc2n1` [Example E22, O-Benzyl-N-{[6-(phenylethynyl)imidazo[1,2-b]pyridazin-2-yl]carbonyl}tyrosine] had a melting point of 224 to 227 °C. Further, the IC50 on human GPR34 was no more than 1 µM.
In turn, `O=C(/C=C/c1ccc(-c2ccc(Cl)cc2)cc1)N[C@@H](Cc1ccc(OCc2ccccc2)cc1)C(=O)O` [Example D2, O-Benzyl-N-[(2E)-3-(4′-chlorobiphenyl-4-yl)propa-2-enoyl]tyrosine] returned a melting point of 253 to 254 °C. The IC50 on human GPR34 is no more than 1 µM.
For `O=C(N[C@@H](Cc1ccc(OCc2ccccc2)cc1)C(=O)O)c1cn2nc(/C=C/c3ccc(Cl)cc3)ccc2n1` [Example E29, O-Benzyl-N-({6-[(E)-2-(4-chlorophenyl)ethenyl]imidazo[1,2-b]pyridazin-2-yl}carbonyl)tyrosine], the melting point was 256 to 257 °C. Further, the IC50 on human GPR34 was no more than 1 µM.
Turning to `Cn1c(C(=O)N[C@@H](Cc2ccc(OCc3ccccc3)cc2)C(=O)O)cc2ccc(-c3ccc(Cl)cc3)cc21` [Example C164, O-Benzyl-N-{[6-(4-chlorophenyl)-1-methyl-1H-indole-2-yl]carbonyl}tyrosine], the melting point was 205 to 206 °C. Besides, the IC50 at human GPR34 was no more than 1 µM.
As for `O=C(N[C@@H](Cc1ccc(OCc2ccccc2)cc1)C(=O)O)c1cc2ccc(-c3ccc(Cl)cc3)cc2[nH]1` [Example C163, O-Benzyl-N-{[6-(4-chlorophenyl)-1H-indol-2-yl]carbonyl}tyrosine], the melting point fell in the range of 202 to 204 °C. For the same compound, the IC50 at human GPR34 is no more than 1 µM.
